Tests used:
[1] = Solubility by visual inspection (DMSO stock solution and assay medium); format: physicochemical; details: assay medium
Procedure: The SOPs relied on visual inspection for solubility observation. […] The absence of precipitation in the medium was checked pre- and post-incubation (24 hours) by centrifugation of the sample and observation of any precipitation (pellet residue).

[2] = Solubility by nephelometry (EURL ECVAM); format: physicochemical
How it was run: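 Turbidity from insolubility detected by laser nephelometry (Tyndall light scatter). Formazin standards at 1, 5, 10 and 20 NTU used to calculate relative turbidity; 1 NTU equals solvent/medium blank background, with sensitivity to 5 NTU.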

HepaRG cells = assay: Cytotoxicity assay (resazurin) in HepaRG cells, 48 hours; format: cell-based, human; details: viability reduction <10%
Procedure: (§1) Potential cytotoxicity of the validation set chemicals for PHH and HepaRG cells was determined starting from the highest soluble concentration, followed by a 1:1 or 1:3 dilution for PHH and HepaRG cells, respectively. The incubation time reflected the conditions used for the induction assays (72 hours and 48 hours of incubation for PHH and HepaRG cells, respectively). The cytotoxicity assay was based on the conversion of redox dye resazurin to fluorescent resorufin by living cells. Non-viable cells, without metabolic capacity, yield no fluorimetry signal.
(§2) Results were expressed as fractional survival (FS %) with respect to untreated controls and were calculated based on measured relative fluorescent units (RFU), corrected for the background signal: %FS=RFUtreated cells−meanRFUbackground/RFUuntreated cells−meanRFUbackgroundx100
(§3) Cytotoxicity was evaluated from the dose-response curve, where the mean FS (%) of three technical replicates was plotted versus the corresponding concentration.
(§4) The SOP acceptance criteria required a cell viability of 50-70 % for doxorubicin (8 μM, HepaRG cells) and ≤70 % for chlorpromazine (25 μM, PHH), the cytotoxicity reference items. The highest concentration with viability reduction <20% (PHH) or <10% (HepaRG) was eligible as starting concentration for the induction assay.

PHH = assay: Cytotoxicity assay (resazurin) in PHH, 72 hours; format: cell-based, human; details: viability reduction <20%
Procedure: as §1, §2, §3, §4

CYP1A2 = details: human in vivo; CYP named without remark = induced; ref references in the cell, Washington University database, Hoffmann et al. (2014), Pelkonen et al. (2008), Hukkanen et al. (2012); cited from earlier work
CYP = CYP isoforms induced; ref Abadie et al. (2009), Richert et al. (2010), Preissner et al. (2010), Hoffmann et al. (2014); cited from earlier work

HepaRG medium stability ([1]; Lab 1, visual observation): 5 µg/mL
HepaRG medium stability ([1]; Lab 2, visual observation): 10 µg/mL
HepaRG medium stability ([1]; Lab 3, visual observation): 10 µg/mL
PHH medium stability ([1]; Lab 4, visual observation): 10 µg/mL
PHH medium stability ([1]; Lab 5, visual observation): 20 µg/mL
PHH medium stability ([1]; Lab 6, visual observation): 20 µg/mL
nephelometry finding in assay medium ([2]; 40 μg/ml, the two media): insoluble suspensions
HepaRG medium stability ([2]; ECVAM nephelometry, HepaRG medium, ^2 = solubility limit): 10^2 μg/mL
PHH medium stability ([2]; ECVAM nephelometry, PHH medium, ^2 = solubility limit): 10^2 μg/mL
Structure (SMILES): OCc1c[nH]c2ccccc12 [Indole-3-carbinol]
highest soluble non cytotoxic concentration used for the subsequent induction assay, HepaRG (HepaRG cells): insoluble (excluded)
highest soluble non cytotoxic concentration used for the subsequent induction assay, PHH (PHH): insoluble (excluded)
CYP induction in vivo literature reference: CYP1A2 (CYP1A2): CYP 1A2 ([Reed et al., 2005]) CYP2B6/CYP3A4 NO studies
CYP induction in vitro (human hepatocytes) (CYP): CYP1A2

— PMC6718736, “Validation of in vitro methods for human cytochrome P450 enzyme induction: Outcome of a multi-laboratory study” (Toxicology in Vitro, 2019)
